In US10000454B2, “Antidiabetic tricyclic compounds” (Merck Sharp & Dohme Corp., priority 2014, dated 2018):

How the values were obtained:
Human GPR40 [1] = target: T1, Human GPR40 (Homo sapiens, UniProt O14842); assay: Inositol Phosphate Turnover (IP1) Assay; format: cell-based; set-up: expressed in transfected cells; host or cells: HEK cells (stably expressing the aequorin reporter); conditions: HEK cells stably expressing human GPR40, CisBio IP-One kit
How it was run: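 HEK cells stably expressing human GPR40, plated 15,000 per well and incubated 16 h, then exposed to compound for 60 min at 37 degrees in stimulation buffer. IP1 measured by HTRF (IP-One) as 665/620 nm ratio, converted to IP1 concentration via a standard curve.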

Human GPR40 [2] = target: T1, Human GPR40; assay: FLIPR assay, agonist-induced calcium mobilization; format: cell-based; set-up: expressed in transfected cells; conditions: GPR40/CHO NFAT BLA cells
How it was run: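 CHO NFAT-BLA cells stably expressing human GPR40 were loaded 100 min at room temperature with buffer (HMS, 0.1% BSA, 20 mM HEPES, 2.5 mM probenecid, pH 7.4) containing 8 μM fluo-4 AM. The agonist-induced calcium rise after compound addition was read as FLIPR fluorescence.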

T1 sequence (O14842 whole entry): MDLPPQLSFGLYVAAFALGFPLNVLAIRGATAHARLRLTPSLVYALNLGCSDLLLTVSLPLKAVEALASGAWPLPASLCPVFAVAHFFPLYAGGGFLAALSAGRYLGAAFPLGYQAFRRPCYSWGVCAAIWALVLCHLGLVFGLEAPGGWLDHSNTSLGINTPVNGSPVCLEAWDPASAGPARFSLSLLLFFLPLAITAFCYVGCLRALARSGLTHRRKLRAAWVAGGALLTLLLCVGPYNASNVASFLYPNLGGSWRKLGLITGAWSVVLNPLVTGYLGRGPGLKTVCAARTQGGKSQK

SMILES | EC50 (Human GPR40 [1]) | EC50 (Human GPR40 [2])
O=C(O)[C@H]1[C@@H]2Cc3cc(OCc4ccc5c(C6CC6)cn(-c6ccccc6C(F)(F)F)c5c4)ncc3[C@@H]21 [Example 37, (5aR,6S,6aS)-3-({3-cyclopropyl-1-[2-(trifluoromethyl)phenyl]-1H-indol-6-yl}methoxy)-5,5a,6,6a-tetrahydrocyclopropa[4,5] cyclopenta[1,2-c]pyridine-6-carboxylic acid] | 0.0915 µM | 0.0425 µM
CN1C(c2ccccc2C(F)(F)F)c2cc(COc3cc4c(cn3)[C@H]3[C@@H](C4)[C@@H]3C(=O)O)ccc2C1(C)C (stereo partly drawn) [Example 38, (5aR,6S,6aS)-3-((1,1,2-trimethyl-3-(2-(trifluoromethyl)phenyl)isoindolin-5-yl)methoxy)-5,5a,6,6a-tetrahydrocyclopropa[4,5]cyclopenta[1,2-c]pyridine-6-carboxylic acid] | 0.0119 µM | 0.00535 µM
CC1(C)NC(c2ccccc2C(F)(F)F)c2cc(COc3cc4c(cn3)[C@H]3[C@@H](C4)[C@@H]3C(=O)O)ccc21 (stereo partly drawn) [Example 39, (5aR,6S,6aS)-3-((1,1-dimethyl-3-(2-(trifluoromethyl)phenyl)isoindolin-5-yl)methoxy)-5,5a,6,6a-tetrahydrocyclopropa[4,5]cyclopenta[1,2-c]pyridine-6-carboxylic acid] | 0.0154 µM | 0.0139 µM
CC1(c2ccccc2C(F)(F)F)OCc2ccc(COc3cc4c(cn3)[C@H]3[C@@H](C4)[C@@H]3C(=O)O)cc21 (some centres unmarked) [Example 40] | 0.431 µM | 0.0167 µM
Cc1c(COc2cc3c(cn2)[C@H]2[C@@H](C3)[C@@H]2C(=O)O)ccc2c1C(c1ccccc1C(F)(F)F)CCC2 (stereo partly drawn) [Example 43, (5aR,6S,6aS)-3-((1-methyl-8-(2-(trifluoro-methyl)phenyl)-5,6,7,8-tetrahydro-naphthalen-2-yl)methoxy)-5,5a,6,6a-tetrahydrocyclopropa[4,5] cyclopenta[1,2-c]pyridine-6-carboxylic acid] | 0.0708 µM | 0.0388 µM
O=C(O)[C@H]1[C@@H]2Cc3cc(OCc4cc5c(cc4F)CCCC5c4ccccc4C(F)(F)F)ncc3[C@@H]21 (stereo partly drawn) [Example 44, (5aR,6S,6aS)-3-((3-fluoro-8-(2-(trifluoro-methyl)phenyl)-5,6,7,8-tetrahydronaphthalen-2-yl)methoxy)-5,5a,6,6a-tetrahydrocyclopropa[4,5] cyclopenta[1,2-c]pyridine-6-carboxylic acid] | 0.068 µM | 0.021 µM
CC1CCc2ccc(COc3cc4c(cn3)[C@H]3[C@@H](C4)[C@@H]3C(=O)O)cc2C1c1ccccc1C(F)(F)F (stereo partly drawn) [Example 46, (5aR,6S,6aS)-3-((7-methyl-8-(2-(trifluoromethyl)phenyl)-5,6,7,8-tetrahydronaphthalen-2-yl)methoxy)-5,5a,6,6a-tetrahydrocyclopropa[4,5]cyclopenta[1,2-c]pyridine-6-carboxylic acid] | 0.0796 µM | 0.00874 µM
CC1=C(c2ccccc2C(F)(F)F)c2cc(COc3cc4c(cn3)[C@H]3[C@@H](C4)[C@@H]3C(=O)O)ccc2CC1 [Example 47, (5aR,6S,6aS)-3-((7-methyl-8-(2-(trifluoromethyl)-phenyl)-5,6-dihydro-naphthalen-2-yl)methoxy)-5,5a,6,6a-tetrahydrocyclo-propa[4,5]cyclopenta[1,2-c]pyridine-6-carboxylic acid] | 0.236 µM | 0.0114 µM
O=C(O)[C@H]1[C@@H]2Cc3cc(OCc4ccc5c(c4)C(c4ccccc4C(F)(F)F)CCO5)ncc3[C@@H]21 (stereo partly drawn) [Example 48, (5aR,6S,6aS)-3-((4-(2-(trifluoromethyl)phenyl)chroman-6-yl)methoxy)-5,5a,6,6a-tetrahydrocyclopropa[4,5]cyclopenta[1,2-c]pyridine-6-carboxylic acid] | 0.0362 µM | 0.0778 µM
O=C(O)[C@H]1[C@@H]2Cc3cc(OCc4ccc5c(c4)C(c4ccccc4C(F)(F)F)OCC5)ncc3[C@@H]21 (stereo partly drawn) [Example 50, (5aR,6S,6aS)-3-((1-(2-(trifluoromethyl)phenyl)isochroman-7-yl)methoxy)-5,5a,6,6a-tetrahydrocyclopropa[4,5]cyclopenta[1,2-c]pyridine-6-carboxylic acid] | 0.015 µM | 0.0432 µM
